The test deals with T1, P2X purinoceptor 7 (Homo sapiens, UniProt Q99572).
T1 sequence (Q99572 whole entry): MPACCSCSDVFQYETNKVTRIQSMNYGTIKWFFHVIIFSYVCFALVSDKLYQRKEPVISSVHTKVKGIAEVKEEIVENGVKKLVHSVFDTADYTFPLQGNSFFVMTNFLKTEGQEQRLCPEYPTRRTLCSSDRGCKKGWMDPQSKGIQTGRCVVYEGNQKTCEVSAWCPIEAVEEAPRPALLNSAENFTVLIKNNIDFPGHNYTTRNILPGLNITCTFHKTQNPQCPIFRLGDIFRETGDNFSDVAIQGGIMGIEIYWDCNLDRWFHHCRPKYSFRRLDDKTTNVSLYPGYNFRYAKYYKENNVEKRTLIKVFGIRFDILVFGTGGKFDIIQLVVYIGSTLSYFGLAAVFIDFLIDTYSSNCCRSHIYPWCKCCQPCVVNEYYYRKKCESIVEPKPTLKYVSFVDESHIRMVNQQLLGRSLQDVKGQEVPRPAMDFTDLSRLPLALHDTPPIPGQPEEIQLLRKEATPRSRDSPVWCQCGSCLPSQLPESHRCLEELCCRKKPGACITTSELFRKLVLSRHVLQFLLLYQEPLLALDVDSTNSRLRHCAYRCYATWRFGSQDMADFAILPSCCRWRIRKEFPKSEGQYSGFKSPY
As to the kind of experiment: SUPPLEMENTARY: Inhibition of human P2X7 receptor assessed as inhibition of ethidium bromide accumulation. Same assay as CHEMBL1103860.

Regarding `CN1[C@H](C(=O)NCc2ccccc2Cl)CCS1(=O)=O`, the IC50 was 794 nM. Then `O=C(NCc1cccc(C(F)(F)F)c1Cl)[C@H]1CCC(=O)N1Cc1cccnc1`, with 50.1 nM; and `Cc1cnn(C)c1CC(=O)NCc1ccc(F)c(F)c1Cl`, with 31.6 nM. The figure for `CCN1C(=O)CC[C@H]1C(=O)NCc1ccccc1C#N` is 631 nM; for `CCN1C(=O)CC[C@H]1C(=O)NCc1cccc(C(F)(F)F)c1C#N` it is 3.16 nM; for `C[C@H]1CC(=O)N(C)[C@@H]1C(=O)NCc1cccc(C(F)(F)F)c1Cl` it is 100 nM. With `C[C@@H]1CC(=O)N(C)[C@@H]1C(=O)NCc1cccc(C(F)(F)F)c1Cl`, the concentration for half-maximal inhibition (IC50) is 15.8 nM. The figure for `CN1C(=O)CC[C@@H]1C(=O)NCc1ccc(Cl)cc1Cl` is 50.1 nM; for `CC(C)(C)CN1C(=O)CC[C@@H]1C(=O)NCc1cccc(C(F)(F)F)c1Cl` it is 158 nM; for `CC(C)N1[C@H](C(=O)NCc2ccc(Cl)cc2Cl)CCCS1(=O)=O` it is 501 nM. As for `Cc1c(Cl)cccc1CNC(=O)[C@@H]1CCCS(=O)(=O)N1C(C)C`, the IC50 was 631 nM.

As for `CN1[C@H](C(=O)NCc2ccc(F)cc2Cl)CCS1(=O)=O`, the IC50 is 126 nM. The figure for `O=C(NCc1cccc(C(F)(F)F)c1Cl)[C@H]1CCC(=O)N1Cc1ccccn1` is 63.1 nM; for `Cc1cccc(Cl)c1CNC(=O)[C@@H]1CCS(=O)(=O)N1C` it is 398 nM.

As to `CN1[C@H](C(=O)NCc2ccc(Cl)cc2Cl)CCS1(=O)=O`, the half-inhibitory concentration (IC50) is 31.6 nM. Regarding `CN1C[C@@H](C(=O)NCc2cccc(C(F)(F)F)c2F)N(C)C1=O`, the IC50 is 7.94 nM. Regarding `CN1C[C@@H](C(=O)NCc2ccc(F)c(F)c2F)N(C)C1=O`, the half-inhibitory concentration (IC50) was 31.6 nM. As for `CN1C[C@@H](C(=O)NCc2ccc(F)cc2C(F)(F)F)N(C)C1=O`, the half-maximal inhibitory concentration (IC50) was 50.1 nM.

Take `CN1C[C@@H](C(=O)NCc2ccc(F)cc2Cl)N(C)C1=O`: the 50% inhibitory concentration (IC50) is 10 nM.

With `CCN1[C@H](C(=O)NCc2ccccc2Cl)CCS1(=O)=O`, the half-inhibitory concentration (IC50) was 501 nM. The figure for `CC(C)N1[C@H](C(=O)NCc2ccc(F)cc2C(F)(F)F)CCS1(=O)=O` is 631 nM; for `CN1[C@H](C(=O)NCc2ccc(F)cc2C(F)(F)F)CCS1(=O)=O` it is 398 nM; for `Cc1cnn(CC(F)(F)F)c1CC(=O)NCc1ccc(F)c(F)c1Cl` it is 50.1 nM. Then `CN1C(=O)CC[C@H]1C(=O)NCc1ccc(F)c(C(F)(F)F)c1Cl`, with 3.16 nM; and `CCN1[C@H](C(=O)NCc2ccc(F)c(F)c2F)CCS1(=O)=O`, with 251 nM; and `Cc1c(Cl)cccc1CNC(=O)[C@@H]1CCS(=O)(=O)N1C`, with 100 nM. Then `Cc1c(Cl)cccc1CNC(=O)[C@@H]1CCS(=O)(=O)N1C(C)C`, with 251 nM; and `CCN1[C@H](C(=O)NCc2cccc(Cl)c2C)CCS1(=O)=O`, with 50.1 nM; and `CCN1[C@H](C(=O)NCc2ccc(F)cc2C(F)(F)F)CCS1(=O)=O`, with 126 nM. Consider `CC(C)N1[C@H](C(=O)NCc2ccc(F)cc2Cl)CCS1(=O)=O`, for which the IC50 was 200 nM. For the compound `CC(C)N1[C@H](C(=O)NCc2ccc(F)c(F)c2F)CCS1(=O)=O`, the half-maximal inhibitory concentration (IC50) is 501 nM. As to `CCN1[C@H](C(=O)NCc2ccc(Cl)cc2Cl)CCS1(=O)=O`, the IC50 was 15.8 nM.

Take `CC(C)N1[C@H](C(=O)NCc2ccc(Cl)cc2Cl)CCS1(=O)=O`: the IC50 is 50.1 nM. With `CC1CC(=O)N(C)[C@@H]1C(=O)NCc1cccc(C(F)(F)F)c1Cl` (some centres undefined), the half-maximal inhibitory concentration (IC50) is 25.1 nM. As to `CCN1C(=O)[C@@H](Cc2ccccc2)C[C@H]1C(=O)NCc1ccc(F)cc1Cl`, the IC50 is 126 nM. Then `CN1[C@H](C(=O)NCc2cccc(C(F)(F)F)c2Cl)CCS1(=O)=O`, with 15.8 nM; and `CN1[C@H](C(=O)NCc2ccc(F)c(F)c2Cl)CCS1(=O)=O`, with 79.4 nM.

Take `CCN1C(=O)[C@H](Cc2ccccc2)C[C@H]1C(=O)NCc1cccc(C(F)(F)F)c1Cl`: the IC50 was 31.6 nM. `CCN1[C@H](C(=O)NCc2ccc(F)c(F)c2Cl)CCS1(=O)=O`: the concentration for half-maximal inhibition (IC50) is 79.4 nM.

The values above are taken from ChEMBL document CHEMBL2218064, “Structure-activity relationship data for chemical series of antagonists of the P2X7 receptor (Supplementary Bioactivity Data for publication CHEMBL1157114)”.
